Experimental data taken from US20260184710A1, “CASITAS B-LINEAGE LYMPHOMA PROTOONCOGENE B (CBL-B) DEGRADING COMPOUNDS AND ASSOCIATED METHODS OF USE” (Arvinas Operations, Inc., priority 2022, published 2026).

Molecular target: T1, Cbl-b (Homo sapiens, UniProt Q13191)
T1 construct: Cbl-b-HiBit KI Jurkat Cells were purchased from Promega; host or cells: Cbl-b-HiBiT knock-in Jurkat cells
Experiment: Cbl-b Degradation Method B (Nano-Glo HiBiT lytic detection)
Type: cell-based
Details: Cbl-b-HiBit KI Jurkat Cells, incubated at least 6-24 hours; for DC50: half maximal degradation, read-out: Cbl-b Degredation Method B IC50; for Dmax: maximum degradation observed, read-out: Cbl-b Degredation Method B Dmax (%)
Description: Cbl-b Degradation Method B [table] Cbl-b-HiBit KI Jurkat Cells were purchased from Promega, and cell media consisted of RPMI 1640 with 10% […] and 1% pen/strep. The cells were counted, measured for viability, and 35 μL of the cell solution was seeded into 384 well flat bottom plates at a ratio of 20,000 cells per 35 μL. After which, the plates were incubated for ˜24 hours at 37° C. and 5% CO2. Compounds were ordered from Evotec in a 384 well plate at a 1 mM top concentration in DMSO and serially diluted 1:3 in DMSO for an 11-point dose response. Using the Bravo instrument, 1 uL of compound solution or DMSO was transferred to 125 uL of media. Each well was treated with 5 μL of compound plus media mixture or DMO and subsequently incubated for at least 6-24 hours at 37° C. and 5% CO2. After incubation, 30 μL of either NanoGlo media was added to each cell, and the plates read on the Synergy Neo2 machine. The concentration of an exemplary compound that leads to half maximal degradation (DC50) as well as the maximum degradation observed (Dmax, conventionally expressed as a percentage of control) is shown below in Table 2.

T1 sequence (Q13191 whole entry): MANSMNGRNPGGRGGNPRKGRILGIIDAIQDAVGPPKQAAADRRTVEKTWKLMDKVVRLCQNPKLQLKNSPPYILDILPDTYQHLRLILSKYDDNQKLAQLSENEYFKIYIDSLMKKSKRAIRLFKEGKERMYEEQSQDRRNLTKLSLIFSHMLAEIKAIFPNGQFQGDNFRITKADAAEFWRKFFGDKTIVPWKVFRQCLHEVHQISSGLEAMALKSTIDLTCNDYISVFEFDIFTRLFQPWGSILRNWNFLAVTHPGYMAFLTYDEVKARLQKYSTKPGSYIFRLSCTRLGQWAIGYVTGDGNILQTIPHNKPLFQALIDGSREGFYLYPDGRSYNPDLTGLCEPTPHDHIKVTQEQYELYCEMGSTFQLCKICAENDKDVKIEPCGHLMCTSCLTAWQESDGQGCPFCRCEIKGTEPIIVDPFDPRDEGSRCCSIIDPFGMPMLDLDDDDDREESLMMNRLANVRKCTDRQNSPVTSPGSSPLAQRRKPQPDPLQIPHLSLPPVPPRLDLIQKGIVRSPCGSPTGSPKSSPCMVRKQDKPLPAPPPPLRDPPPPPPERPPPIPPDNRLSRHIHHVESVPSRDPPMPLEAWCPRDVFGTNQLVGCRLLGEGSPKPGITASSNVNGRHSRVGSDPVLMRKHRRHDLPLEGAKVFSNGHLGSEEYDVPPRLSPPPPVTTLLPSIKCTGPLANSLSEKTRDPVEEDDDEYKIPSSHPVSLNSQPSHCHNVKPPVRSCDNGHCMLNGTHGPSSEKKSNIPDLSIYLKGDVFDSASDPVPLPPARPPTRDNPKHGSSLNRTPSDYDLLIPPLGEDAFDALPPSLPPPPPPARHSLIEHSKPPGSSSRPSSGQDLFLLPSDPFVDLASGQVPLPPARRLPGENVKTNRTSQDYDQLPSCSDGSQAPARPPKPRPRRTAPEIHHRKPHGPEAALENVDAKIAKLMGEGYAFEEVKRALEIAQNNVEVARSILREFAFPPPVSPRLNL

Compound	DC50	Dmax
Cc1cc(N2CCC(O[C@H]3CC[C@H](CN4CCN(Cc5cc6c(c(C(F)(F)F)c5)CN(c5cccc(C7(Cc8nncn8C)CC(C#N)C7)c5)C6=O)C(C)(C)C4)CC3)CC2)c(F)c2c1C(=O)N(C1CCC(=O)NC1=O)C2 (stereo partly drawn) [Example 251, (1r**,3r**)-3-(3-{6-[(2,2-dimethyl-4-{[(1r*,4r*)-4-({1-[2-(2,6-dioxopiperidin-3-yl)-4-fluoro-7-methyl-1-oxo-2,3-dihydro-1H-isoindol-5-yl]piperidin-4-yl}oxy)cyclohexyl]methyl}piperazin-1-yl)methyl]-1-oxo-4-(trifluoromethyl)-2,3-dihydro-1H-isoindol-2-yl}phenyl)-3-[(4-methyl-4H-1,2,4-triazol-3-yl)methyl]cyclobutane-1-carbonitrile]	5 to 50 nM	> 70%
CCn1cnnc1CC1(c2cccc(N3Cc4c(cc(CN5CCN(C[C@H]6CC[C@H](OC7CCN(c8ccc9c(n8)C(C)N(C8CCC(=O)NC8=O)C9=O)CC7)CC6)CC5)cc4C(F)(F)F)C3=O)c2)COC1 (mixture of isomers) [Example 235, rac-3-[7-methyl-5-oxo-2-(4-{[(1r,4r)-4-[(4-{[2-(3-{3-[(4-ethyl-4H-1,2,4-triazol-3-yl)methyl]oxetan-3-yl}phenyl)-3-oxo-7-(trifluoromethyl)-2,3-dihydro-1H-isoindol-5-yl]methyl}piperazin-1-yl)methyl]cyclohexyl]oxy}piperidin-1-yl)-5H,6H,7H-pyrrolo[3,4-b]pyridin-6-yl]piperidine-2,6-dione]	< 5 nM	35 to 70%
C[C@@H]1c2nc(N3CCC(O[C@H]4CC[C@H](CN5CCN(Cc6cc7c(c(C(F)(F)F)c6)CN(c6cccc(C8(Cc9nncn9C)CC(C#N)C8)c6)C7=O)[C@@H](C)C5)CC4)CC3)ccc2C(=O)N1C1CCC(=O)NC1=O (single isomer, unassigned) [Example 247, (1r***,3r***)-3-[3-(6-{[(2S)-2-methyl-4-{[(1r**,4r**)-4-({1-[(7R*)-6-(2,6-dioxopiperidin-3-yl)-7-methyl-5-oxo-5H,6H,7H-pyrrolo[3,4-b]pyridin-2-yl]piperidin-4-yl}oxy)cyclohexyl]methyl}piperazin-1-yl]methyl}-1-oxo-4-(trifluoromethyl)-2,3-dihydro-1H-isoindol-2-yl)phenyl]-3-[(4-methyl-4H-1,2,4-triazol-3-yl)methyl]cyclobutane-1-carbonitrile]	< 5 nM	> 70%
C[C@@H]1c2nc(N3CCC(O[C@H]4CC[C@H](CN5CCN(Cc6cc7c(c(C(F)(F)F)c6)CN(c6cccc(C8(Cc9nncn9C)CC(C#N)C8)c6)C7=O)CC5(C)C)CC4)CC3)ccc2C(=O)N1C1CCC(=O)NC1=O (single isomer, unassigned) [Example 313, (1r***,3r***)-3-(3-{6-[(3,3-dimethyl-4-{[(1r**,4r**)-4-({1-[(7R*)-6-(2,6-dioxopiperidin-3-yl)-7-methyl-5-oxo-5H,6H,7H-pyrrolo[3,4-b]pyridin-2-yl]piperidin-4-yl}oxy)cyclohexyl]methyl}piperazin-1-yl)methyl]-1-oxo-4-(trifluoromethyl)-2,3-dihydro-1H-isoindol-2-yl}phenyl)-3-[(4-methyl-4H-1,2,4-triazol-3-yl)methyl]cyclobutane-1-carbonitrile]	> 500 nM	–
CC1c2nc(N3CCC(O[C@H]4CC[C@H](CN5CCN(Cc6cc(C(F)(F)F)c7c(n6)C(=O)N(c6cccc(C8(Cc9nncn9C)COC8)c6)C7)CC5)CC4)CC3)ccc2C(=O)N1C1CCC(=O)NC1=O (stereo partly drawn) [Example 282, 3-[7-methyl-2-[4-[4-[[4-[[6-[3-[3-[(4-methyl-1,2,4-triazol-3-yl)methyl]oxetan-3-yl]phenyl]-7-oxo-4-(trifluoromethyl)-5H-pyrrolo[3,4-b]pyridin-2-yl]methyl]piperazin-1-yl]methyl]cyclohexoxy]-1-piperidyl]-5-oxo-7Hpyrrolo[3,4-b]pyridin-6-yl]piperidine-2,6-dione]	> 500 nM	–
Cn1cnnc1CC1(c2cccc(-n3cc4c(C(F)(F)F)cc(CN5CCC[C@H](CN6CCC[C@@H](OC7CCN(c8ccc9c(c8F)CN(C8CCC(=O)NC8=O)C9=O)CC7)C6)C5)cc4n3)c2)COC1 (stereo partly drawn) [Example 297, 3-[4-fluoro-5-(4-{[(3R)-1-{[(3S)-1-{[2-(3-{3-[(4-methyl-4H-1,2,4-triazol-3-yl)methyl]oxetan-3-yl}phenyl)-4-(trifluoromethyl)-2H-indazol-6-yl]methyl}piperidin-3-yl]methyl}piperidin-3-yl]oxy}piperidin-1-yl)-1-oxo-2,3-dihydro-1H-isoindol-2-yl]piperidine-2,6-dione]	> 500 nM	–
CC1c2nc(N3CCC(O[C@H]4CC[C@H](CN5CCN(Cc6cc7c(c(C(F)(F)F)c6)CN(c6cccc(C8(Cc9nncn9C)COC8)c6)C7=O)C(C)(C)C5)CC4)CC3)ccc2C(=O)N1C1CCC(=O)NC1=O (relative stereo) [Example 246, rel-3-[7-methyl-5-oxo-2-(4-{[(1r,4r)-4-[(3,3-dimethyl-4-{[2-(3-{3-[(4-methyl-4H-1,2,4-triazol-3-yl)methyl]oxetan-3-yl}phenyl)-3-oxo-7-(trifluoromethyl)-2,3-dihydro-1H-isoindol-5-yl]methyl}piperazin-1-yl)methyl]cyclohexyl]oxy}piperidin-1-yl)-5H,6H,7H-pyrrolo[3,4-b]pyridin-6-yl]piperidine-2,6-dione]	< 5 nM	35 to 70%
Cn1cnnc1CC1(c2cccc(N3Cc4c(cc(CN5CCC(CN6CCN(c7ccc8c(c7)C(=O)N(C7CCC(=O)NC7=O)C8=O)CC6)C5)cc4C(F)(F)F)C3=O)c2)COC1 (stereo not drawn) [Example 80, 2-(2,6-dioxopiperidin-3-yl)-5-{4-[(1-{[2-(3-{3-[(4-methyl-4H-1,2,4-triazol-3-yl)methyl]oxetan-3-yl}phenyl)-3-oxo-7-(trifluoromethyl)-2,3-dihydro-1H-isoindol-5-yl]methyl}pyrrolidin-3-yl)methyl]piperazin-1-yl}-2,3-dihydro-1H-isoindole-1,3-dione]	> 500 nM	–
Cn1cnnc1C[C@]1(c2cccc(N3Cc4c(cc(N5CC6(CCN(C(=O)C7CCN(c8ccc9c(c8)C(=O)N(C8CCC(=O)NC8=O)C9=O)CC7)CC6)C5)cc4C(F)(F)F)C3=O)c2)C[C@H](C#N)C1 (stereo partly drawn) [Example 146, 3-[3-[6-[7-[1-[2-(2,6-dioxo-3-piperidyl)-1,3-dioxo-isoindolin-5-yl]piperidine-4-carbonyl]-2,7-diazaspiro[3.5]nonan-2-yl]-1-oxo-4-(trifluoromethyl)isoindolin-2-yl]phenyl]-3-[(4-methyl-1,2,4-triazol-3-yl)methyl]cyclobutanecarbonitrile]	5 to 50 nM	< 35%
Cn1cnnc1CC1(c2cccc(N3Cc4c(cc(CN5CCC(C(C)(C)N6CCN(c7ccc8c(c7)C(=O)N(C7CCC(=O)NC7=O)C8=O)CC6)CC5)cc4C(F)(F)F)C3=O)c2)COC1 (stereo not drawn) [Example 59, 2-(2,6-dioxopiperidin-3-yl)-5-{4-[2-(1-{[2-(3-{3-[(4-methyl-4H-1,2,4-triazol-3-yl)methyl]oxetan-3-yl}phenyl)-3-oxo-7-(trifluoromethyl)-2,3-dihydro-1H-isoindol-5-yl]methyl}piperidin-4-yl)propan-2-yl]piperazin-1-yl}-2,3-dihydro-1H-isoindole-1,3-dione]	> 500 nM	–
